Experimental data as given in paper PMC10408569, “Recruitment of hexahydroquinoline as anticancer scaffold targeting inhibition of wild and mutants EGFR (EGFR^WT, EGFR^T790M, and EGFR^L858R)” (Journal of Enzyme Inhibition and Medicinal Chemistry, 2023).

How the values were obtained:
HOP-62 = test: NCI-60 anticancer screening (SRB); assay type: cell-based; details: Homo sapiens; HOP-62, NSC lung cancer; one dose 10 μM; read-out: Growth Inhibition Percentage (GI %)
UO-31 = test: NCI-60 anticancer screening (SRB); assay type: cell-based; details: Homo sapiens; UO-31, renal cancer; one dose 10 μM; read-out: Growth Inhibition Percentage (GI %)
MDA-MB-435 = test: NCI-60 anticancer screening (SRB); assay type: cell-based; details: Homo sapiens; MDA-MB-435, melanoma; one dose 10 μM; read-out: Growth Inhibition Percentage (GI %)
EGFR^L858R = EGFR^L858R (Homo sapiens, UniProt P00533, L858R); test: biochemical
EGFR^L858R, sequence (P00533 25-1210 L858R): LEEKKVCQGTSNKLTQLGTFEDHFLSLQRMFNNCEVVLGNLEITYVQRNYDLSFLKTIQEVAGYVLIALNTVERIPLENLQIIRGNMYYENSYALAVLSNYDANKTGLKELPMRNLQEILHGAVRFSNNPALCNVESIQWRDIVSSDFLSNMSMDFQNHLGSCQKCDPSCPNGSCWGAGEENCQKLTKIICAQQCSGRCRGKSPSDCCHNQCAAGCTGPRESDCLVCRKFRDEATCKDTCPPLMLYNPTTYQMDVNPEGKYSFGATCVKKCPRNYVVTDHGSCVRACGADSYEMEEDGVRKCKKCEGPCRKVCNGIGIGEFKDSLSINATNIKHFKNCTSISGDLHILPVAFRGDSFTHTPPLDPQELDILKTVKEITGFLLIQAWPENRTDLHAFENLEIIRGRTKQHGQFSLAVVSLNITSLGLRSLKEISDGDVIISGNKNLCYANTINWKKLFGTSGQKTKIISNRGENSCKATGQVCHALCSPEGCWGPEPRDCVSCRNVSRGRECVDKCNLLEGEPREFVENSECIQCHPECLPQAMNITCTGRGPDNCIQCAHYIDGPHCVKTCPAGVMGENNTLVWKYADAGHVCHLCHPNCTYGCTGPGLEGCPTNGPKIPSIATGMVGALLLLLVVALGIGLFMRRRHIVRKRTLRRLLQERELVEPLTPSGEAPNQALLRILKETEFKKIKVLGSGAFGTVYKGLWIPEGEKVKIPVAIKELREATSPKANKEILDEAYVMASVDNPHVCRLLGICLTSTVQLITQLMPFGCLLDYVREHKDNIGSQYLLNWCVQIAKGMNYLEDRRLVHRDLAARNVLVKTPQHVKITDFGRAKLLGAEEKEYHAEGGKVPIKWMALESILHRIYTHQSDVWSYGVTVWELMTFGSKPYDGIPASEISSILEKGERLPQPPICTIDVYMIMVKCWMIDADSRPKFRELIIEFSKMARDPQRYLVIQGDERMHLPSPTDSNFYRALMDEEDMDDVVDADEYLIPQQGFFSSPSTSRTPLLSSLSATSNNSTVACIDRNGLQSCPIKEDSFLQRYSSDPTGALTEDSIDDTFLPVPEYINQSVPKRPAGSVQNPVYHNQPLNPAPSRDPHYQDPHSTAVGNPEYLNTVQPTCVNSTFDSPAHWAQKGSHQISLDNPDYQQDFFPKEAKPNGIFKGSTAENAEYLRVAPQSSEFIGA

SK-MEL-5 = test: NCI-60 anticancer screening (SRB); assay type: cell-based; details: Homo sapiens; SK-MEL-5, melanoma; one dose 10 μM; read-out: Growth Inhibition Percentage (GI %)
EKVX = test: NCI-60 anticancer screening (SRB); assay type: cell-based; details: Homo sapiens, NSC lung cancer, one dose 10 μM, read-out: Growth Inhibition Percentage (GI %)
SK-MEL-28 = test: NCI-60 anticancer screening (SRB); assay type: cell-based; details: Homo sapiens; SK-MEL-28, melanoma; one dose 10 μM; read-out: Growth Inhibition Percentage (GI %)
MOLT-4 = test: NCI-60 anticancer screening (SRB); assay type: cell-based; details: Homo sapiens; MOLT-4, leukemia; one dose 10 μM; read-out: Growth Inhibition Percentage (GI %)
SNB-19 = test: NCI-60 anticancer screening (SRB); assay type: cell-based; details: Homo sapiens; SNB-19, CNS cancer; one dose 10 μM; read-out: Growth Inhibition Percentage (GI %)
A549/ATCC = test: NCI-60 anticancer screening (SRB); assay type: cell-based; details: Homo sapiens; A549/ATCC, NSC lung cancer; one dose 10 μM; read-out: Growth Inhibition Percentage (GI %)
HOP-92 = test: NCI-60 anticancer screening (SRB); assay type: cell-based; details: Homo sapiens; HOP-92, NSC lung cancer; one dose 10 μM; read-out: Growth Inhibition Percentage (GI %)
SF-295 = test: NCI-60 anticancer screening (SRB); assay type: cell-based; details: Homo sapiens; SF-295, CNS cancer; one dose 10 μM; read-out: Growth Inhibition Percentage (GI %)
MALME-3M = test: NCI-60 anticancer screening (SRB); assay type: cell-based; details: Homo sapiens, melanoma, one dose 10 μM, read-out: Growth Inhibition Percentage (GI %)
HS 578T = test: NCI-60 anticancer screening (SRB); assay type: cell-based; details: Homo sapiens; HS 578T, breast cancer; one dose 10 μM; read-out: Growth Inhibition Percentage (GI %)
UACC-62 = test: NCI-60 anticancer screening (SRB); assay type: cell-based; details: Homo sapiens; UACC-62, melanoma; one dose 10 μM; read-out: Growth Inhibition Percentage (GI %)
NCI-H460 = test: NCI-60 anticancer screening (SRB); assay type: cell-based; details: Homo sapiens; NCI-H460, NSC lung cancer; one dose 10 μM; read-out: Growth Inhibition Percentage (GI %)
HCC-2998 = test: NCI-60 anticancer screening (SRB); assay type: cell-based; details: Homo sapiens; HCC-2998, colon cancer; one dose 10 μM; read-out: Growth Inhibition Percentage (GI %)
OVCAR-4 = test: NCI-60 anticancer screening (SRB); assay type: cell-based; details: Homo sapiens; OVCAR-4, ovarian cancer; one dose 10 μM; read-out: Growth Inhibition Percentage (GI %)
EGFR^T790M = EGFR^T790M (Homo sapiens, UniProt P00533, T790M); test: biochemical
EGFR^T790M, sequence (P00533 25-1210 T790M): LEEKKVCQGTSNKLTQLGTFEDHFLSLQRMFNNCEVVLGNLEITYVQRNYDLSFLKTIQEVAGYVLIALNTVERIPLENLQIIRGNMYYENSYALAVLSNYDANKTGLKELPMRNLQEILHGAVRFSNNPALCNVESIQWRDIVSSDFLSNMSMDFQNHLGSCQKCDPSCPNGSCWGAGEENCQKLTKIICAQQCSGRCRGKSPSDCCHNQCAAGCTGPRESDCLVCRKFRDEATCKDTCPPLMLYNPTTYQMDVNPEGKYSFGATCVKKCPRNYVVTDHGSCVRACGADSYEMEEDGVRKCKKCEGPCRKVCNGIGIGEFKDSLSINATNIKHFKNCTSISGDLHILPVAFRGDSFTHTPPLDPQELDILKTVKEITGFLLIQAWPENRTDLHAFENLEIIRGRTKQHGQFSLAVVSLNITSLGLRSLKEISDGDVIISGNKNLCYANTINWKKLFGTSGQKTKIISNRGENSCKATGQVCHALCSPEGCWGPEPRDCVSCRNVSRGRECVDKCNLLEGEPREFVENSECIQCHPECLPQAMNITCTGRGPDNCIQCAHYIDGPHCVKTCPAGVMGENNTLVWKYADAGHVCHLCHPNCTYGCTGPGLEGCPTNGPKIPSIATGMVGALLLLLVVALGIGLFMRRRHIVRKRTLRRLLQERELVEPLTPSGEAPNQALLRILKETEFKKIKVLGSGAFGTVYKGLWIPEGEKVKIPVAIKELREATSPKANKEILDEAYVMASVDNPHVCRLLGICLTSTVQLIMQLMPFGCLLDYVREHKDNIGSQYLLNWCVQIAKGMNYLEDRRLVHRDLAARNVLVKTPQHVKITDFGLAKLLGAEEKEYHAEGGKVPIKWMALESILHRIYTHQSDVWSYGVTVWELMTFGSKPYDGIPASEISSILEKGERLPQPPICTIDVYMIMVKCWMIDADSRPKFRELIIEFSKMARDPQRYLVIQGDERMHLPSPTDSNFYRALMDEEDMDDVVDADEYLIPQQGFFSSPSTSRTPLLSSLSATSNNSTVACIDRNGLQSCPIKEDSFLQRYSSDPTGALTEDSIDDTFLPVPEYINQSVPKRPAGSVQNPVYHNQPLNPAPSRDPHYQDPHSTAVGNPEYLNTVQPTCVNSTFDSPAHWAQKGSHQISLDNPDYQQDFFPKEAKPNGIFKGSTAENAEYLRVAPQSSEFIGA

HT29 = test: NCI-60 anticancer screening (SRB); assay type: cell-based; details: Homo sapiens, HT-29; HT29, colon cancer; one dose 10 μM; read-out: Growth Inhibition Percentage (GI %)
ACHN = test: NCI-60 anticancer screening (SRB); assay type: cell-based; details: Homo sapiens, renal cancer, one dose 10 μM, read-out: Growth Inhibition Percentage (GI %)
RPMI-8226 = test: NCI-60 anticancer screening (SRB); assay type: cell-based; details: Homo sapiens; RPMI-8226, leukemia; one dose 10 μM; read-out: Growth Inhibition Percentage (GI %)
CAKI-1 = test: NCI-60 anticancer screening (SRB); assay type: cell-based; details: Homo sapiens; CAKI-1, renal cancer; one dose 10 μM; read-out: Growth Inhibition Percentage (GI %)
OVCAR-8 = test: NCI-60 anticancer screening (SRB); assay type: cell-based; details: Homo sapiens; OVCAR-8, ovarian cancer; one dose 10 μM; read-out: Growth Inhibition Percentage (GI %)
NCI-H522 = test: NCI-60 anticancer screening (SRB); assay type: cell-based; details: Homo sapiens; NCI-H522, NSC lung cancer; one dose 10 μM; read-out: Growth Inhibition Percentage (GI %)
DU-145 = test: NCI-60 anticancer screening (SRB); assay type: cell-based; details: Homo sapiens; DU-145, prostate cancer; one dose 10 μM; read-out: Growth Inhibition Percentage (GI %)
OVCAR-3 = test: NCI-60 anticancer screening (SRB); assay type: cell-based; details: Homo sapiens; OVCAR-3, ovarian cancer; one dose 10 μM; read-out: Growth Inhibition Percentage (GI %)
SN 12C = test: NCI-60 anticancer screening (SRB); assay type: cell-based; details: Homo sapiens, SN12C; SN 12C, renal cancer; one dose 10 μM; read-out: Growth Inhibition Percentage (GI %)
SF-539 = test: NCI-60 anticancer screening (SRB); assay type: cell-based; details: Homo sapiens; SF-539, CNS cancer; one dose 10 μM; read-out: Growth Inhibition Percentage (GI %)
EGFR^WT = EGFR^WT (Homo sapiens, UniProt P00533); test: EGFR kinase inhibitory assay (HTRF)
EGFR^WT, sequence (P00533 25-1210): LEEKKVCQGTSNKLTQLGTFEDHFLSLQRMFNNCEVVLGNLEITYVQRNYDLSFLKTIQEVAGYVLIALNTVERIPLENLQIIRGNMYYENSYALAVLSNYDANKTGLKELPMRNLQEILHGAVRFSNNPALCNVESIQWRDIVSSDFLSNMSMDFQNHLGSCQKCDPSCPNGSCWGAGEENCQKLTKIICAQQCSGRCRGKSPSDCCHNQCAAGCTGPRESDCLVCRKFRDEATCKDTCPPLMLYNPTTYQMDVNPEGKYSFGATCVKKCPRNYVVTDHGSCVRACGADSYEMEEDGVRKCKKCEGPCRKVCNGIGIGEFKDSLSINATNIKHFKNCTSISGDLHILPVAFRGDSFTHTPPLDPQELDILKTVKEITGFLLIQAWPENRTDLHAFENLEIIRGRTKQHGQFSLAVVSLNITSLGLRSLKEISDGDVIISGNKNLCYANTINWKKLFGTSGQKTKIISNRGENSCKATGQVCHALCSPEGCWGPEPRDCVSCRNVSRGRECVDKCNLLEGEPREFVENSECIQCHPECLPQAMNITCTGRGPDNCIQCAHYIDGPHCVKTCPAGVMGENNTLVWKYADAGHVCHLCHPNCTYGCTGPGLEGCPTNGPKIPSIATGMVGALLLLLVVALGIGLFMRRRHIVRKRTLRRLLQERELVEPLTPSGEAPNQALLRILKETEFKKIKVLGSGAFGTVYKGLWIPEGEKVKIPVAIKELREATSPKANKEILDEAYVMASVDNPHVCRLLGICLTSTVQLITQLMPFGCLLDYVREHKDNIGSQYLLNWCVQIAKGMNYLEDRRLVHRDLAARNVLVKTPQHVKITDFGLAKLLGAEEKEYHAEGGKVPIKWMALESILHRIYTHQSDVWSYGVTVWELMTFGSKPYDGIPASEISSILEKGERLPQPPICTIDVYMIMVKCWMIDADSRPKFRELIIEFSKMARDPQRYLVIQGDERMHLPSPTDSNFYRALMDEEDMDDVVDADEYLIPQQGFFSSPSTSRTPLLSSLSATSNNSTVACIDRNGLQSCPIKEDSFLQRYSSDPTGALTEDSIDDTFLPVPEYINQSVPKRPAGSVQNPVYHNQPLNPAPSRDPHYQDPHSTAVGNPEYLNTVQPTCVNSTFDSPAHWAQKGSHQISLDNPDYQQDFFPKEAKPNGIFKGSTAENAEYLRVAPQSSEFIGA

CCOC(=O)C1=C(N)N(c2ccc(Cl)cc2)C2=C(C(=O)CC(C)(C)C2)C1c1ccccc1OC (racemic) [6i, (±)-Ethyl 2-amino-1–(4-chlorophenyl)-4–(2-methoxyphenyl)-7,7-dimethyl-5-oxo-1,4,5,6,7,8-hexahydroquinoline-3-carboxylate]
inhibition at 10 µM (HOP-62): < 10%
inhibition at 10 µM (UO-31): 43%
inhibition at 10 µM (MDA-MB-435): 51%
IC50 (EGFR^L858R): 230 ± 1 nM
inhibition at 10 µM (SK-MEL-5): 29%
inhibition at 10 µM (EKVX): 44%
inhibition at 10 µM (SK-MEL-28): 36%
inhibition at 10 µM (MOLT-4): 89%
inhibition at 10 µM (SNB-19): 28%
inhibition at 10 µM (A549/ATCC): 52%
inhibition at 10 µM (HOP-92): 12%
melting point: 228 to 230 °C
inhibition at 10 µM (SF-295): 41%
inhibition at 10 µM (MALME-3M): 40%
inhibition at 10 µM (HS 578T): 32%
inhibition at 10 µM (UACC-62): 44%
inhibition at 10 µM (NCI-H460): 51%
inhibition at 10 µM (HCC-2998): 38%
inhibition at 10 µM (OVCAR-4): 58%
IC50 (EGFR^T790M): 450 ± 3 nM
inhibition at 10 µM (HT29): 44%
inhibition at 10 µM (ACHN): 38%
inhibition at 10 µM (RPMI-8226): 73%
inhibition at 10 µM (CAKI-1): 12%
inhibition at 10 µM (OVCAR-8): 12%
inhibition at 10 µM (NCI-H522): 43%
inhibition at 10 µM (DU-145): < 10%
inhibition at 10 µM (OVCAR-3): 19%
inhibition at 10 µM (SN 12C): 12%
inhibition at 10 µM (SF-539): 31%
IC50 (EGFR^WT): 157 ± 30 nM

CCOC(=O)C1=C(N)N(c2ccc(Cl)cc2)C2=C(C(=O)CC(C)(C)C2)C1c1ccc(F)cc1 (racemic) [8b, (±)-Ethyl 2-amino-1–(4-chlorophenyl)-4–(4-fluoroyphenyl)-7,7-dimethyl-5-oxo-1,4,5,6,7,8-hexahydroquinoline-3-carboxylate]
inhibition at 10 µM (HOP-62): < 10%
inhibition at 10 µM (UO-31): 30%
inhibition at 10 µM (MDA-MB-435): 11%
IC50 (EGFR^L858R): 770 ± 6 nM
inhibition at 10 µM (SK-MEL-5): 29%
inhibition at 10 µM (EKVX): 25%
inhibition at 10 µM (SK-MEL-28): < 10%
inhibition at 10 µM (MOLT-4): < 10%
inhibition at 10 µM (SNB-19): 22%
inhibition at 10 µM (A549/ATCC): 12%
inhibition at 10 µM (HOP-92): 21%
melting point: 256 to 258 °C
inhibition at 10 µM (SF-295): 12%
inhibition at 10 µM (MALME-3M): < 10%
inhibition at 10 µM (HS 578T): < 10%
inhibition at 10 µM (UACC-62): 40%
inhibition at 10 µM (NCI-H460): < 10%
inhibition at 10 µM (HCC-2998): < 10%
inhibition at 10 µM (OVCAR-4): 16%
IC50 (EGFR^T790M): 650 ± 4 nM
inhibition at 10 µM (HT29): 39%
inhibition at 10 µM (ACHN): < 10%
inhibition at 10 µM (RPMI-8226): < 10%
inhibition at 10 µM (CAKI-1): 26%
inhibition at 10 µM (OVCAR-8): 13%
inhibition at 10 µM (NCI-H522): 40%
inhibition at 10 µM (DU-145): < 10%
inhibition at 10 µM (OVCAR-3): < 10%
inhibition at 10 µM (SN 12C): < 10%
inhibition at 10 µM (SF-539): < 10%
IC50 (EGFR^WT): 186 ± 100 nM

CCOC(=O)C1=C(N)N(c2ccccc2)C2=C(C(=O)CC(C)(C)C2)C1c1ccc(Cl)cc1 (racemic) [8c, (±)-Ethyl 2-amino-4–(4-chlorophenyl)-7,7-dimethyl-5-oxo-1-phenyl-1,4,5,6,7,8-hexahydroquinoline-3-carboxylate]
inhibition at 10 µM (HOP-62): 19%
inhibition at 10 µM (UO-31): 71%
inhibition at 10 µM (MDA-MB-435): 78%
IC50 (EGFR^L858R): 812 ± 5 nM
inhibition at 10 µM (SK-MEL-5): 72%
inhibition at 10 µM (EKVX): 72%
inhibition at 10 µM (SK-MEL-28): 56%
inhibition at 10 µM (MOLT-4): 99%
inhibition at 10 µM (SNB-19): 85%
inhibition at 10 µM (A549/ATCC): 66%
inhibition at 10 µM (HOP-92): 30%
melting point: 215 to 217 °C
inhibition at 10 µM (SF-295): 79%
inhibition at 10 µM (MALME-3M): 84%
inhibition at 10 µM (HS 578T): 28%
inhibition at 10 µM (UACC-62): 78%
inhibition at 10 µM (NCI-H460): 87%
inhibition at 10 µM (HCC-2998): 57%
inhibition at 10 µM (OVCAR-4): 71%
IC50 (EGFR^T790M): 820 ± 6 nM
inhibition at 10 µM (HT29): 65%
inhibition at 10 µM (ACHN): 78%
inhibition at 10 µM (RPMI-8226): 92%
inhibition at 10 µM (CAKI-1): 50%
inhibition at 10 µM (OVCAR-8): 39%
inhibition at 10 µM (NCI-H522): 62%
inhibition at 10 µM (DU-145): 42%
inhibition at 10 µM (OVCAR-3): 48%
inhibition at 10 µM (SN 12C): 46%
inhibition at 10 µM (SF-539): 64%
IC50 (EGFR^WT): 194 ± 90 nM
